{"source": "paper PMC4740378", "about": "“Export of malaria proteins requires co-translational processing of the PEXEL motif independent of phosphatidylinositol-3-phosphate binding” (Nature Communications, 2016)", "target": "T1, p40PX (GST-p40PX, aa 1-148) (Homo sapiens, UniProt Q15080)", "T1 construct": "gene NCF4; PX domain, residues 1-148, N-terminal GST fusion (pGEX; glutathione-purified, detected with anti-GST), E. coli", "T1 sequence (Q15080 1-148)": "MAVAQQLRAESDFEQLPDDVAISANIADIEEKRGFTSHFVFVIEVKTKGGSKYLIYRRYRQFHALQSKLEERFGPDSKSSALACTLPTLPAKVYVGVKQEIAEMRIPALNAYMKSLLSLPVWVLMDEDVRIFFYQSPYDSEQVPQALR", "experiment": "SPR, Biacore […], L1 chip with liposomes", "type": "binding", "settings": "PC:PE:PI(3)P 75:20:5 liposomes, PC/PE control subtracted; 150 mM NaCl, 50 mM HEPES pH 7.5, 25 °C; own-purified protein", "data": [{"smiles": "CCCCCCCCCCCCCCCC(=O)OC[C@H](COP(=O)(O)O[C@@H]1[C@H](O)[C@H](OP(=O)(O)O)[C@@H](O)[C@H](O)[C@H]1O)OC(=O)CCCCCCCCCCCCCCC", "note": "[PI(3)P-diC16, D-myo-phosphatidylinositol 3-phosphate di-C16]", "values": [{"measurement": "Kd", "result": 195, "unit": "nM"}]}]}
